IC50 data for two compounds are collected here from ChEMBL document CHEMBL5726652, “Oxazole orexin receptor antagonists” (2017).

The test has as its target T1, Orexin receptor type 2 (Homo sapiens, UniProt O43614).
T1 sequence (O43614 whole entry): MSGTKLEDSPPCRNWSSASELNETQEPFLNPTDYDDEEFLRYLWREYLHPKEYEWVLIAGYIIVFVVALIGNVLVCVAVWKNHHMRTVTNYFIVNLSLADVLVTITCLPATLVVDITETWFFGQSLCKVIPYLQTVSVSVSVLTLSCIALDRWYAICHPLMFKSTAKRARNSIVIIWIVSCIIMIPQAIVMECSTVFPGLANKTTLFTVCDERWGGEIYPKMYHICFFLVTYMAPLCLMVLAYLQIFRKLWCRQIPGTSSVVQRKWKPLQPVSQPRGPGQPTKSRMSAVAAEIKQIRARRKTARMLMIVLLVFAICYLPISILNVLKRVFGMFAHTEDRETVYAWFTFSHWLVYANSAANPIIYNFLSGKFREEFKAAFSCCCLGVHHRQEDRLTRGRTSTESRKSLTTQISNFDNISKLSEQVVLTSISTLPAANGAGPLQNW
Description: FLIPR Ca2+ Flux Assay: For intracellular calcium measurements, Chinese hamster ovary (CHO) cells expressing the rat orexin-1 receptor or the human orexin-2 receptor, are grown in Iscove's modified DMEM containing 2 mM L-glutamine, […], 1% hypoxanthine-thymidine supplement, 100 U/ml penicillin, 100 μg/ml streptomycin and 10% heat-inactivated fetal calf serum (FCS). The cells are seeded at 20,000 cells/well into Becton-Dickinson black 384-well clear bottom sterile plates coated with poly-D-lysine. All reagents were from GIBCO-Invitrogen Corp. The seeded plates are incubated overnight at 37° C. and 5% CO2. Ala-6,12 human orexin-A as the agonist is prepared as a 1 mM stock solution in 1% bovine serum albumin (BSA) and diluted in assay buffer (HBSS containing 20 mM HEPES, 0.1% BSA and 2.5 mM probenecid, pH7.4) for use in the assay at a final concentration of 70 pM. Test compounds are prepared as 10 mM stock solution in DMSO, then diluted in 384-well plates, first in DMSO, then assay buffer. On the day of the assay, cells are washed 3 times with 100 μl assay buffer and then incubated for 60 min (37° C., 5% CO2) in 60 μl assay buffer containing 1 μM Fluo-4AM ester, 0.02% pluronic acid, and 1% BSA. The dye loading solution is then aspirated and cells are washed 3 times with 100 μl assay buffer. 30 μl of that same buffer is left in each well. […]. The test is classed as cell-based. In general terms: Calcium flux is commonly read through the fluorescence of an indicator in the cells.

As usually defined, the IC50 is the concentration that gives 50% inhibition. With `Cc1oc([C@@H]2CC[C@@H](C)N(C(=O)c3cscc3-c3ncccn3)C2)nc1C(C)(C)O`, the half-maximal inhibitory concentration (IC50) was determined as 56 nM.
Under `COC(=O)Cc1nc([C@@H]2CC[C@@H](C)N(C(=O)c3ccccc3-n3nccn3)C2)oc1-c1ccccc1` stands 33 nM.
